According to patent US8637092B2, “Pharmaceutical composition for treating diabetes and its process for preparation” (Tasly Pharmaceutical Group Co., Ltd., priority 2007, dated 2014):

Tested on: STZ high-blood-glucose rats
Assay: Efficacy test: blood glucose in streptozotocin (STZ) induced high-blood-glucose rats
Assay type: in vivo
Conditions: STZ model male SD rats, mean ± SD, n = 10
Description: Sixty of male SD rats with SPF grade, weighed 200-220 g. Tested drugs (TL-1, TL-2 and TL-3) were powder of the extract respectively prepared by Examples 3, 8 and 9. SD rats were fasted overnight after one-week adaptation, intraperitoneal and injected a solution of 2% (W/V) STZ prepared with […] citric acid buffer solution (pH 4.4) (65 mg/kg). Three days later, the blood was sampled from tail vein to assay blood glucose. Those animals with blood glucose level equal to or higher than 16.7 mmol/L were considered to be successful model. The modeled rats were randomly divided into model group, Metformin (125 mg/kg) group and different treatment groups (corresponding to 15.5 g crude drugs/kg). After one-week adaptation and the blood glucose detection, rats were administered by gastric infusion, once a day. All of the drugs were diluted with physiological saline to prepare into suspension for administration. Animals were free to access of food and water during the 15-day testing period. At the seventh and fourteenth day after administration, the rats were fasted for two hours after administration. Respectively, blood was sampled from tail vein to assay blood glucose with blood glucose meter (one-touch ultra). At the same time, the body weights of the rats were measured. Results were expressed as mean±SD ( X±SD), and t-test was used to evaluate the significant difference of measurement data between two groups.

[1] = gastric infusion once a day, Metformin 125 mg/kg, TL 15.5 g crude drugs/kg, fasted 2 h, tail vein blood

CN(C)C(=N)N=C(N)N [Metformin]
Blood glucose level before administration (baseline before gastric infusion): 21.61 ± 2.066 mmol/L | Blood glucose level, 14 days after administration [1]: 17.54 ± 1.222 mmol/L | blood glucose level, 7 days after administration [1]: 18.64 ± 0.783 mmol/L
